Measured values: US9309242B2, “Substituted pyrido[2,3-b]pyrazines as FGFR kinase inhibitors” (priority 2011, dated 2016)

Tests used:
[1] = target: FGFR1 (h) (Homo sapiens, UniProt P11362); assay: FGFR1 (enzymatic assay), TR-FRET; assay type: biochemical; settings: read-out: FGFR 1 pIC50 (converted)
[2] = target: FGFR2 (h) (Homo sapiens, UniProt P21802); assay: FGFR2 (enzymatic assay), TR-FRET; assay type: biochemical; settings: enzymatic assay; read-out: FGFR 2 pIC50 (converted)
How it was run: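 hFGFR2 150 ng/ml; Btn-Flt3 500 nM; ATP 0.4 μM; 50 mM HEPES pH 7.5, 6 mM MnCl2, 1 mM DTT, 0.1 mM Na3VO4, 0.01% Triton-X-100; 1% DMSO final.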

[3] = target: FGFR3 (h) (Homo sapiens, UniProt P22607); assay: FGFR3 (enzymatic assay), TR-FRET; assay type: biochemical; settings: read-out: FGFR 3 pIC50 (converted)
From the text: Time-Resolved Fluorescence Resonance Energy Transfer (TR-FRET) signal (ex340 nm.

[4] = target: FGFR4 (h) (Homo sapiens, UniProt P22455); assay: FGFR4 (enzymatic assay), TR-FRET; assay type: biochemical; settings: FGFR 4 pIC50, enzymatic assay
[5] = target: KDR (h) (Homo sapiens, UniProt P35968); assay: KDR (VEGFR2) (enzymatic assay), TR-FRET; assay type: biochemical; settings: read-out: VEGFR 2 (KDR) pIC50 (converted)
How it was run: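 3 μM ATP, 500 nM Btn-Flt3 substrate, 150 ng/ml kinase; HEPES pH 7.5 with MnCl2, DTT, vanadate, Triton; 1% DMSO. 120 min RT. Stop: EDTA + Eu-anti-P-Tyr + SA-XL-665, 60 min RT. Readout TR-FRET ex340/em620, 655 nm, RFU.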

[6] = target: T1, Ba/F3-FGFR1-transfected cells (Homo sapiens, UniProt P11362); assay: Ba/F3-FGFR1 (minus IL3) cellular proliferation assay, Alamar Blue; assay type: cell-based
T1 construct: BAF3-FGFR1 (MIN IL3) pIC50; other: minus IL3
How it was run: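 Compound is dispensed first, then FGFR1-transfected Ba/F3 cells are added at 20000 per well in phenol red-free RPMI-1640 containing 10% FBS. After 24 h at 37 °C, Alamar Blue is added for 4 h and fluorescence is measured at 540/590 nm.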

[7] = tested on: Ba/F3-FGFR1-transfected cells; assay: Ba/F3-FGFR1 (plus IL3) cellular proliferation assay, counterscreen with 10 ng/ml murine IL3; assay type: cell-based; settings: plus IL3 (10 ng/ml murine IL3, counterscreen); read-out: BAF3-FGFR1 (PLUS IL3) pIC50 (converted)
How it was run: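 Proliferation read-out: resazurin-based Alamar Blue fluorescence (540/590 nm) after 4 h, following 24 h compound treatment of 20000 Ba/F3-FGFR1 cells per well in 10% FBS RPMI at 37° C. IL3 counterscreen used the same protocol plus 10 ng/ml murine IL3.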

[8] = target: T2, Ba/F3-FGFR3-transfected cells (Homo sapiens, UniProt P22607); assay: Ba/F3-FGFR3 (minus IL3) cellular proliferation assay, Alamar Blue; assay type: cell-based
T2 construct: BAF3-FGFR3 (MIN IL3) pIC50; other: minus IL3
How it was run: (§1)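 Compound dilutions were dispensed first, then 20000 FGFR3-transfected Ba/F3 cells per well in serum-containing RPMI-1640 were added. After 24 h incubation at 37° C, Alamar Blue was applied for 4 h before relative fluorescence units were recorded. In the minus-IL3 format cells grow without cytokine; the other format contains 10 ng/ml murine IL3.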

[9] = tested on: Ba/F3-FGFR3-transfected cells; assay: Ba/F3-FGFR3 (plus IL3) cellular proliferation assay, counterscreen with 10 ng/ml murine IL3; assay type: cell-based; settings: plus IL3 (10 ng/ml murine IL3, counterscreen); read-out: BAF3-FGFR3 (PLUS IL3) pIC50 (converted)
How it was run: as §1

[10] = target: T3, Ba/F3-KDR-transfected cells (Homo sapiens, UniProt P35968); assay: Ba/F3-KDR (minus IL3) cellular proliferation assay, Alamar Blue; assay type: cell-based
T3 construct: BAF3-KDR (MIN IL3) pIC50; other: minus IL3
How it was run: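 Read-out: resazurin-based Alamar Blue fluorescence (ex. 540, em. 590 nm) after 4 h. Before that, cells were incubated with compound for 24 h at 37° C. The counterscreen ran identically but with IL3 supplemented.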

Sequence of FGFR1 (h) (P11362 22-822): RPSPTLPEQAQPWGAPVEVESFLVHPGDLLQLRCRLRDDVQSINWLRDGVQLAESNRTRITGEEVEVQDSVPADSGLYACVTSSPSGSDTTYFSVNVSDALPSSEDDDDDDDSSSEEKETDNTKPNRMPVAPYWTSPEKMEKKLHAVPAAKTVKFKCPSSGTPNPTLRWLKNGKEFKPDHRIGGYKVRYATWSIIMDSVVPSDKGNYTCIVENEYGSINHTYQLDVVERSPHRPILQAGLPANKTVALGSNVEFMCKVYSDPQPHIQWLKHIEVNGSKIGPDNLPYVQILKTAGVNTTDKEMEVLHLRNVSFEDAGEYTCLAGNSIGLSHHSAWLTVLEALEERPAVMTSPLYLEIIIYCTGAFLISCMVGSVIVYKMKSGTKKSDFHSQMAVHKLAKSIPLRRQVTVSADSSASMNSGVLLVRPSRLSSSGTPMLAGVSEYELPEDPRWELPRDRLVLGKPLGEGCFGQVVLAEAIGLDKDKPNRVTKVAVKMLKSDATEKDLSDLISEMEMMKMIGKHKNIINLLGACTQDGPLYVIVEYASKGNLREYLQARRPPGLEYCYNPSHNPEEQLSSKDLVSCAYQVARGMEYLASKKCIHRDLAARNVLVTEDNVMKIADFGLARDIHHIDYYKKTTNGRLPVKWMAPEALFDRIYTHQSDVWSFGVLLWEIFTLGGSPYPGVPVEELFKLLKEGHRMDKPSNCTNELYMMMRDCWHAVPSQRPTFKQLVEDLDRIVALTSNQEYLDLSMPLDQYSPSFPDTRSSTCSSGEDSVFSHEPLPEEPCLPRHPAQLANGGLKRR
Sequence of FGFR3 (h) (P22607 23-806): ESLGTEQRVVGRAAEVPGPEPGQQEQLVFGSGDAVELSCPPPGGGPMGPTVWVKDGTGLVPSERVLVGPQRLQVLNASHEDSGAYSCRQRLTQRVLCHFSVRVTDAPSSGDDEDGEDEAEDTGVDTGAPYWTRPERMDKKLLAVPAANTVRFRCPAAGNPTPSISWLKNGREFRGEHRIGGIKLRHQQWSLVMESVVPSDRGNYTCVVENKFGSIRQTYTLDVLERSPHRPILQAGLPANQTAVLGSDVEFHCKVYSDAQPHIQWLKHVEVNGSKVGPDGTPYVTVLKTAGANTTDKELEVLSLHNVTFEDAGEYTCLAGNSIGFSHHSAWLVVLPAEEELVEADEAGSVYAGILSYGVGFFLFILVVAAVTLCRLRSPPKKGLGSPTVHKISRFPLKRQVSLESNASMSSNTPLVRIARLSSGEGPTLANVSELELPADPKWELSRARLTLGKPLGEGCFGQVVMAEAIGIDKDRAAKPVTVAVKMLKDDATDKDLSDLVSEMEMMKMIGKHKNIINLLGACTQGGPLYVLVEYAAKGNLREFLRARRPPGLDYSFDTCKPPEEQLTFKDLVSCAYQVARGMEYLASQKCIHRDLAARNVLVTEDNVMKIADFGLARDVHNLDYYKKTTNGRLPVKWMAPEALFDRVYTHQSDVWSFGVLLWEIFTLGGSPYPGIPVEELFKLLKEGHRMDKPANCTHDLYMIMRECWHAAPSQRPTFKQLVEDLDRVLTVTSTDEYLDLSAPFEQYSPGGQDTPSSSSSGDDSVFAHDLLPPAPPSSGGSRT
T1 sequence (P11362 whole entry, change not shown): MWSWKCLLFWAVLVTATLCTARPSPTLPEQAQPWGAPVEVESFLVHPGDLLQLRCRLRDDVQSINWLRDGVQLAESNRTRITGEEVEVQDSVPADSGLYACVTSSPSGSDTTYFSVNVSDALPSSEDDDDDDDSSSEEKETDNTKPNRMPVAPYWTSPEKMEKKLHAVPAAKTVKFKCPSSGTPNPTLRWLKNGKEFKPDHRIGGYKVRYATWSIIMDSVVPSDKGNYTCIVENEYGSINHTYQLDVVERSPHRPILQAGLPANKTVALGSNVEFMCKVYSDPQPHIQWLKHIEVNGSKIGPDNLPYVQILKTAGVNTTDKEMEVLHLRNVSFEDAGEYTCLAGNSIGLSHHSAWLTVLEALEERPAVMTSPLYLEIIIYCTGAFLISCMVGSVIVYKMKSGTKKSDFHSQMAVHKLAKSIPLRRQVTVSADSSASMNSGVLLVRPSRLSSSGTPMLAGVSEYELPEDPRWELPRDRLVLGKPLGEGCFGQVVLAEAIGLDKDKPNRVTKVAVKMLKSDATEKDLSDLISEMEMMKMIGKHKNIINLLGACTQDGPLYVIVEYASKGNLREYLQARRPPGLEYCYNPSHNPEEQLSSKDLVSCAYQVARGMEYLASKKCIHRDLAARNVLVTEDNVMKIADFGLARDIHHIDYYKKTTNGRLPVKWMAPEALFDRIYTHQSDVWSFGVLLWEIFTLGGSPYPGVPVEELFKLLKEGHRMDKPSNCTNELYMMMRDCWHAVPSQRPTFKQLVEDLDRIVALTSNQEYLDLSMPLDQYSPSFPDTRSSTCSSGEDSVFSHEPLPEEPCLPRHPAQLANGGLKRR
Sequence of FGFR2 (h) (P21802 22-821): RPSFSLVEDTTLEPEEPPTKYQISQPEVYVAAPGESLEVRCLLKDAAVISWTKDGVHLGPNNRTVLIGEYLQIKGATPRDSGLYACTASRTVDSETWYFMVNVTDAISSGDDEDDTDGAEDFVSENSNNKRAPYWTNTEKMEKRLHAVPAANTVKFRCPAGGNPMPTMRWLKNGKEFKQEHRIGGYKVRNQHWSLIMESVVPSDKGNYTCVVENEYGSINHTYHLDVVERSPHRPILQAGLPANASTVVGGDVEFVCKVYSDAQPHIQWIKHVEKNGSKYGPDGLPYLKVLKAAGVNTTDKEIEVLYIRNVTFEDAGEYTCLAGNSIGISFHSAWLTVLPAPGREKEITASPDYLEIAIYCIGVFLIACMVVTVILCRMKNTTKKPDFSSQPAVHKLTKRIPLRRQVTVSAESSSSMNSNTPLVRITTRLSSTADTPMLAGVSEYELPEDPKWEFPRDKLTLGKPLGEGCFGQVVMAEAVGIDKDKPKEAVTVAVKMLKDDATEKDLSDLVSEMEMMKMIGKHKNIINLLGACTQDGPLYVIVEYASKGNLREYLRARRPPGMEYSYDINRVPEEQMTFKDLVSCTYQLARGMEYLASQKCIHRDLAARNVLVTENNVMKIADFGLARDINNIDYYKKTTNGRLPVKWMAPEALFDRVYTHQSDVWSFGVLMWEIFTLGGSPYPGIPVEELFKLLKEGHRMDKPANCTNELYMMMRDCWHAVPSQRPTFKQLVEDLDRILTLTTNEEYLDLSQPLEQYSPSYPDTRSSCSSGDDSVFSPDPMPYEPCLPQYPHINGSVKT
Sequence of KDR (h) (P35968 20-1356): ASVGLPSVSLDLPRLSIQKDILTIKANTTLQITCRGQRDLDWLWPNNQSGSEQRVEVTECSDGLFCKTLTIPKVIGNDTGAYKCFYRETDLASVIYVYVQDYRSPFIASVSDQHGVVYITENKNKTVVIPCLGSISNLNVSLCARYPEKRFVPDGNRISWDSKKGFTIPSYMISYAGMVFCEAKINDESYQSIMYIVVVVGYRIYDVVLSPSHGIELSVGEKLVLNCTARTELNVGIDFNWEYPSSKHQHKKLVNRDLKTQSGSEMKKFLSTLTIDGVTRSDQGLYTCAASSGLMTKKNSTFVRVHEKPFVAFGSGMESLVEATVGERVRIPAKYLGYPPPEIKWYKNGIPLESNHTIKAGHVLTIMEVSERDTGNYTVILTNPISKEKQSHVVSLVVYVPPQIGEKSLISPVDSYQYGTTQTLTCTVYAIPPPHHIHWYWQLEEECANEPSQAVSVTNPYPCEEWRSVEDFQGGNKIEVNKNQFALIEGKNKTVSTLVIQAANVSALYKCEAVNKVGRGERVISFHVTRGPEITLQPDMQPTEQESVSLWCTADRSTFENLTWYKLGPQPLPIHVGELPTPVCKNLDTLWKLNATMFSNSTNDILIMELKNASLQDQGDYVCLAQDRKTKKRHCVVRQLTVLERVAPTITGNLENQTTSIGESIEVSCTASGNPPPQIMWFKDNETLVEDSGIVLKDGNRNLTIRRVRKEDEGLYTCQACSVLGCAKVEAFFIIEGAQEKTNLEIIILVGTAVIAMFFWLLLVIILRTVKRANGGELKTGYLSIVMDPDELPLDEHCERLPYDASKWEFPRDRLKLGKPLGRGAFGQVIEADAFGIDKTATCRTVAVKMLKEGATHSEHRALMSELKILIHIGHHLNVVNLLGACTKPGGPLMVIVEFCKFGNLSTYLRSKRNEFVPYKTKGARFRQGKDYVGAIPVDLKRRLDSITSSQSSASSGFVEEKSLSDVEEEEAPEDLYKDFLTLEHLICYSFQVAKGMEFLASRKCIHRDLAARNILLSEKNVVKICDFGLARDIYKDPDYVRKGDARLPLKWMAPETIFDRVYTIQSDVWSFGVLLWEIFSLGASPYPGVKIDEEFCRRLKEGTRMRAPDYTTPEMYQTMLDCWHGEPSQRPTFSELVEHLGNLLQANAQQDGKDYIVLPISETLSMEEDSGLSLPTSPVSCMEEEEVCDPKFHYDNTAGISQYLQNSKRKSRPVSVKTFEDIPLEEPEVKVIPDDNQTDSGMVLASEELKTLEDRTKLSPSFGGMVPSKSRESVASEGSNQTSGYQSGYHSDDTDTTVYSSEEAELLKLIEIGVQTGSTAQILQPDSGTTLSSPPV

SMILES	IC50 [1] [nM]	IC50 [2] [nM]	IC50 [3] [nM]	IC50 [4] [nM]	IC50 [5] [nM]	BAF3-FGFR1 (MIN IL3) pIC50 [6]	IC50 [7] [nM]	BAF3-FGFR3 (MIN IL3) pIC50 [8]	IC50 [9] [nM]	BAF3-KDR (MIN IL3) pIC50 [10]
COc1cc(OC)cc(N(CCNC2COC2)c2ccc3ncc(-c4cnn(C)c4)nc3n2)c1 [Compound 290]	3.55	4.47	4.47	12.9	55	7.09	> 10000	7.06	> 10000	5.81
COc1cc(OC)c(F)c(N(Cc2ncc[nH]2)c2ccc3ncc(N4CCOCC4)nc3n2)c1 [Compound 291]	0.871	1.55	1.2	3.39	89.1	8.03	> 10000	7.73	> 10000	5.68
COc1cc(OC)cc(N(Cc2ncc[nH]2)c2ccc3ncc(N4CCOCC4)nc3n2)c1 [Compound 293]	1.62	1.82	1.58	4.79	234	7.59	> 10000	7.59	> 10000	5.31
COc1cc(OC)c(F)c(N(Cc2ncc[nH]2)c2ccc3ncc(-c4cnn(CCCN)c4)nc3n2)c1 [Compound 295]	0.562	1.74	1.29	2.4	9.33	8.47	> 10000	8.17	> 10000	6.45
COc1cc(OC)c(F)c(N(Cc2noc(C)n2)c2ccc3ncc(-c4cnn(C)c4)nc3n2)c1 [Compound 297]	0.794	1.78	1.7	3.02	16.2	7.70	> 10000	7.69	> 10000	6.08
COc1cc(OC)c(F)c(N(CC2CCC(=O)N2)c2ccc3ncc(-c4cnn(C5CNC5)c4)nc3n2)c1 (stereo not drawn) [Compound 299]	1.78	4.68	3.55	8.91	120	6.05	> 10000	5.94	> 10000	<5
